Where two headings read alike, the source gives them in different places.
How the values were obtained:
[1] = biological target: KRAS G13D (Homo sapiens (Human), UniProt P01116, G13D); assay: SOS-catalyzed nucleotide exchange assay (GNE), KRAS G13D; format: biochemical; conditions: TR-FRET, 60 min preincubation
Excerpt: (§1) Procedure for SOS-Catalyzed Nucleotide Exchange Assay for KRAS-WT, G12C/D/V/A/R/S, G13D, Q61H, HRAS-WT, and NRAS-WT
(§2) Recombinant KRAS-G12C protein used in this assay has an additional triple mutation (C51S/C80L/C118S). Whereas KRAS-WT, G12D/V/A/S/R, G13D, Q61H, HRAS and NRAS are in context of their WT protein sequence background. Specifically, the SOS-catalyzed nucleotide exchange assay utilizes a preformed TR-FRET complex containing a specific biotinylated RAS protein (KRAS-WT, G12C/V/D/A/S/R, G13D, Q61H, HRAS-WT, NRAS-WT; described above) with Bodipy-GDP, and Terbium-streptavidin. Compounds are preincubated with this complex for 60 minutes. Subsequently, recombinant human SOS protein and unlabeled GTP are added to initiate the exchange reaction. Small molecule inhibitors stabilize the Bodipy-GDP complex whereas the untreated protein rapidly exchanges Bodipy-GDP for unlabeled GTP resulting in reduced TR-FRET signal.
(§3) To assemble the preformed TR-FRET complexes, each biotinylated RAS protein is diluted to 2 μM in an EDTA Buffer (20 mM HEPES pH 7.5, 50 mM sodium chloride, 10 mM EDTA, and 0.01% Tween) and incubated at room temperature for one hour. This mixture is then further diluted to 90 nM in an Assay Buffer (20 mM HEPES pH 7.5, 150 mM sodium chloride, 10 mM magnesium chloride, and 0.005% Tween) containing 15 nM of Terbium-Streptavidin (Invitrogen, catalog #PV3577) and 900 nM of Bodipy-GDP (Invitrogen, catalog #G22360) and incubated at room temperature for six hours. It should be noted that this preformed TR-FRET complex for each of the RAS protein were made ahead of time, aliquoted and stored at −80° C. until the day of the experiment.
(§4) Each test compound (10 mM stock in DMSO) is diluted in DMSO to make a final-10-point, 3-fold dilution and is acoustically dispensed into a 384-well assay plate (Corning, catalog #3820) using an Echo 550 (Labcyte). Each well of the assay plate receives 3 μL of a specific 3×RAS preformed TR-FRET complex and 3 μL of Assay Buffer and is incubated at room temperature for 60 minutes (preincubation time). Each well then receives 3 μL of 3× recombinant human SOS protein and GTP (Sigma, G8877) in Assay Buffer and is incubated at room temperature for 30 minutes (G13D), 60 minutes (KRAS WT/G12C/D, H/NRAS) or 90 minutes for G12A/R/S/V and Q61H. The final reaction in each well of 9 μL consists of 3 mM GTP, specific Ras and SOS proteins in the following concentrations: KRAS-G12C/SOS=3 nM/40 nM, KRAS-WT and G12D/SOS=1 nM/40 nM, KRAS-G12V/SOS=1.25 nM/160 nM, KRAS-G12A/S/SOS=1 nM/160 nM, KRAS-G12R/SOS=1 nM/320 nM, KRAS-Q61H/SOS=1 nM/320 nM, KRAS-G13D/SOS=1.25 nM/[…], HRAS-WT and NRAS-WT=1.25 nM/40 nM.
(§5) The time-resolved fluorescence resonance energy transfer (TR-FRET) signal is measured on an Envision (PerkinElmer) plate reader: Excitation filter=340 nm; emission1=495 nm; emission2=520 nm; dichroic mirror=D400/D505; delay time=[…]. The signal of each well is determined as the ratio of the emission at 520 nm to that at 495 nm. Percent effect of each well is determined after normalization to control wells containing DMSO (no effect) or a saturating concentration of inhibitor (max effect). The apparent effect as a function of compound concentration is fit to a four-parameter logistic equation.

[2] = biological target: NRAS (Homo sapiens (Human), UniProt P01111); assay: SOS-catalyzed nucleotide exchange assay (GNE), NRAS-WT; format: biochemical; conditions: TR-FRET, 60 min preincubation
NRAS, sequence (P01111 other isoform, or with tags, fused parts or gaps): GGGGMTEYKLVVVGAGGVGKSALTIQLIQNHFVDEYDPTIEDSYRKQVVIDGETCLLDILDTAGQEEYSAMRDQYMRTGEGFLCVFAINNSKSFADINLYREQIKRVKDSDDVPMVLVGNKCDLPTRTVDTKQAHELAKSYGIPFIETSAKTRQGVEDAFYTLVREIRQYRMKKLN
Excerpt: as §1, §2, §3, §4, §5

[3] = biological target: KRAS G12S (Homo sapiens (Human), UniProt P01116, G12S); assay: SOS-catalyzed nucleotide exchange assay (GNE), KRAS G12S; format: biochemical; conditions: TR-FRET, 60 min preincubation
KRAS G12S, sequence (P01116 other isoform, or with tags, fused parts or gaps G12S (already in the parent)): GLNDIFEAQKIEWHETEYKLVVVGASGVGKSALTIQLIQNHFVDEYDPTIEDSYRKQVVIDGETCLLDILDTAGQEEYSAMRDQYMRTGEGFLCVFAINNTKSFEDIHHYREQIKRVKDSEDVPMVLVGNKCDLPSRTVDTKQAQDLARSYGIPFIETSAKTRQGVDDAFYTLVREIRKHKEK
Excerpt: as §1, §2, §3, §4, §5

[4] = test system: AsPC-1 cells (homozygous KRAS-G12D); assay: Cellular phospho-ERK assay, AsPC-1 cells; format: cell-based; conditions: p-ERK vs. total ERK, read-out: AsPC1 pERK IC50
Procedure: Procedure for Cellular Phospho-ERK Assay in KRAS Wild Type and Mutant (G12D, G12V) Cell Lines
MKN-1 cells (JCRB JCRB0252) containing amplified wild-type KRAS, were cultured in growth medium that contains RPMI 1640-GlutaMAX™-I (ThermoFisher Scientific 61870) containing 10% heat inactivated fetal bovine serum (ThermoFisher Scientific 10091148), 1 mM sodium pyruvate and 10 mM HEPES. AsPC-1 cells (ATCC® CRL-1682™), containing homozygous KRAS-G12D activating mutation, were cultured in T150 flask in growth medium (RPMI medium 1640-GlutaMAX™-I (ThermoFisher Scientific 61870) containing 10% fetal bovine serum (ThermoFisher Scientific 10091148)). SW620 cells (ATCC® CRL-227™) containing homozygous KRAS-G12V activating mutation, were cultured in growth medium that contains RPMI 1640-GlutaMAX™-I (ThermoFisher Scientific 61870) containing 10% heat inactivated fetal bovine serum (ThermoFisher Scientific 10091148).
Cells for the assay were harvested in growth medium after TrypLE (ThermoFisher scientific 12604021) digestion and were seeded in a 384-well collagen coated cell culture plate (Corning 356702) at a density of 10,000-15,000 cells/[…]/well, and incubated at 37° C., 5% CO2 overnight. The compound (with 10 mM stock concentration) dose-response titrations were prepared [30 μM final ERK detection assay concentration and 1:3 dilutions, 10-point dose response] and appropriate amounts (270 nL) of test compounds were dispensed in a 384-well intermediate plate using an Echo 550 liquid handler. 30 μL/well of RPMI medium 1640-GlutaMAX™-I was added to the intermediate plate and the contents of the intermediate plate (10 μL/well) were then transferred to the 384-well collagen coated cell culture plate, which was incubated at 37° C., 5% CO2 for 2 h. After removal of medium from the collagen coated cell culture plate, cells were lysed in lysis buffer from Alpha SureFire® Ultra™ Multiplex p-ERK and total ERK assay kit (PerkinElmer MPSU-PTERK) containing Halt™ Protease and Phosphatase inhibitor cocktail (ThermoFisher Scientific 78446) at room temperature with constant shaking at 300 rpm for 30 minutes. The cell lysates were then transferred to an OptiPlate-384 plate (PerkinElmer 6005620), and the phosphorylation of ERK (p-ERK) and total ERK levels were detected by Alpha SureFire® Ultra™ Multiplex p-EEK kit and total ERK assay kit (PerkinElmer MPSU-PTERK) following the manufacturer's protocol. Assay plates were read on a EnVision Multimode Plate Reader (PerkinElmer), and the ratio of p-ERK vs. total ERK in each well was used as the final readout. Dose response curves were analyzed using a 4-parameter logistic model to calculate IC50 values using Spotfire software.

KRAS G13D, sequence (P01116 other isoform, or with tags, fused parts or gaps G13D (already in the parent)): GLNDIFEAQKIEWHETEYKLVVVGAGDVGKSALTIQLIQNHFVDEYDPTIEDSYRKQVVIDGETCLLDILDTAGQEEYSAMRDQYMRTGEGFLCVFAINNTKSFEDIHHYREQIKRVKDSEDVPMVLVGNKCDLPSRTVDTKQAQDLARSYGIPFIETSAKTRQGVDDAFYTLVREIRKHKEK

| SMILES | IC50 [1] | IC50 [2] | IC50 [3] | IC50 ([4]; 2 h) | IC50 ([4]; Homo sapiens, ASPC1, 2 h) |
| --- | --- | --- | --- | --- | --- |
| F/C=C1/CN2CCC[C@@]2(COc2nc3c4c(nc(-c5c(C6CC6)c(Cl)cc6[nH]ncc56)c(F)c4n2)OC[C@@H]2COCCCN32)C1 [Ex-1, (8aS)-5-(6-chloro-5-cyclopropyl-1H-indazol-4-yl)-4-fluoro-2-(((S,Z)-2-(fluoromethylene)tetrahydro-1H-pyrrolizin-7a(5H)-yl)methoxy)-8a,9,12,13-tetrahydro-8H,11H-7,10-dioxa-1,3,6,13a-tetraazanaphtho[1,8-ab]heptalene] | 3.7 nM | > 11100 nM | < 0.69 nM | 5.1 nM |  |
| CCc1c(F)ccc2cc3[nH]ncc3c(-c3nc4c5c(nc(OC[C@@]67CCCN6C[C@H](F)C7)nc5c3F)N3CCCOC[C@H]3CO4)c12 [Ex-2, (8aS)-5-(5-ethyl-6-fluoro-1H-benzo[f]indazol-4-yl)-4-fluoro-2-(((2R,7aS)-2-fluorotetrahydro-1H-pyrrolizin-7a(5H)-yl)methoxy)-8a,9,12,13-tetrahydro-8H,11H-7,10-dioxa-1,3,6,13a-tetraazanaphtho[1,8-ab]heptalene] | 1 nM | 7020 nM | < 0.69 nM | 7.4 nM |  |
| Fc1c(-c2c(C3CC3)c(Cl)cc3[nH]ncc23)nc2c3c(nc(OC[C@@]45CCCN4C[C@H](F)C5)nc13)N1CCCOC[C@H]1CO2 [Ex-3, (8aS)-5-(6-chloro-5-cyclopropyl-1H-indazol-4-yl)-4-fluoro-2-(((2R,7aS)-2-fluorotetrahydro-1H-pyrrolizin-7a(5H)-yl)methoxy)-8a,9,12,13-tetrahydro-8H,11H-7,10-dioxa-1,3,6,13a-tetraazanaphtho[1,8-ab]heptalene] |  |  |  |  | 15 nM |
| CCc1c(F)ccc2cc3[nH]ncc3c(-c3nc4c5c(nc(OC[C@@]67CCCN6C/C(=C\F)C7)nc5c3F)N3CCCOC[C@H]3CO4)c12 [Ex-4, (8aS)-5-(5-ethyl-6-fluoro-1H-benzo[f]indazol-4-yl)-4-fluoro-2-(((S,Z)-2-(fluoromethylene)tetrahydro-1H-pyrrolizin-7a(5H)-yl)methoxy)-8a,9,12,13-tetrahydro-8H,11H-7,10-dioxa-1,3,6,13a-tetraazanaphtho[1,8-ab]heptalene] | 0.89 nM | 2820 nM | < 0.69 nM |  | 2.2 nM |
| F/C=C1\CN2CCC[C@@]2(COc2nc3c4c(nc(-c5c(C6(F)CC6)c(Cl)cc6[nH]ncc56)c(F)c4n2)OC[C@@H]2COCCCN32)C1 [Ex-5, (8aS)-5-(6-chloro-5-(1-fluorocyclopropyl)-1H-indazol-4-yl)-4-fluoro-2-(((S,Z)-2-(fluoromethylene)tetrahydro-1H-pyrrolizin-7a(5H)-yl)methoxy)-8a,9,12,13-tetrahydro-8H,11H-7,10-dioxa-1,3,6,13a-tetraazanaphtho[1,8-ab]heptalene] | 1.2 nM | > 11100 nM | 0.77 nM |  | 3.2 nM |
| CCc1c(F)ccc2cc3[nH]nc(C)c3c(-c3nc4c5c(nc(OC[C@@]67CCCN6C[C@H](F)C7)nc5c3F)N3CCCOC[C@H]3CO4)c12 [Ex-6, (8aS)-5-(5-ethyl-6-fluoro-3-methyl-1H-benzo[f]indazol-4-yl)-4-fluoro-2-(((2R,7aS)-2-fluorotetrahydro-1H-pyrrolizin-7a(5H)-yl)methoxy)-8a,9,12,13-tetrahydro-8H,11H-7,10-dioxa-1,3,6,13a-tetraazanaphtho[1,8-ab]heptalene] | 1.9 nM | 10000 nM | 1.2 nM |  | 9.5 nM |
| CCc1c(F)ccc2cc3[nH]nc(C)c3c(-c3nc4c5c(nc(OC[C@@]67CCCN6C/C(=C\F)C7)nc5c3F)N3CCCOC[C@H]3CO4)c12 [Ex-7, (8aS)-5-(5-ethyl-6-fluoro-3-methyl-1H-benzo[f]indazol-4-yl)-4-fluoro-2-(((S,Z)-2-(fluoromethylene)tetrahydro-1H-pyrrolizin-7a(5H)-yl)methoxy)-8a,9,12,13-tetrahydro-8H,11H-7,10-dioxa-1,3,6,13a-tetraazanaphtho[1,8-ab]heptalene] | 2.4 nM | 8980 nM | 1.3 nM | 7.1 nM |  |

— patent publication US12466840B2, “Small molecule inhibitors of KRAS proteins” (Merck Sharp & Dohme LLC, priority 2023, dated 2025)
